# How the values were obtained:
# [1] = test system: MC38; assay: scratch test of MC38; format: cell-based; settings: concentrations such as 5 μM, 10 μM or 20 μM; FIGS. 3-7
# Protocol: Different concentrations of PDE4 inhibitors, such as 5 μM, 10 μM, or 20 μM, were administered to verify the inhibitory effect on metastasis in the scratch test of MC38.
# [2] = test system: MC38 cells; assay: tumor metastasis model, MC38 cells injected into the spleen of mice; format: in vivo, C57 mice; settings: 4 mg/kg intraperitoneally every 3 days, 6 doses; FIGS. 1A and 1B
# Protocol: In use, DMSO was used as the solvent for Oxaliplatin and Roflumilast. (1) Tumorigenesis in mice. 6-8 week-old C57 female mice were selected. MC38 cells were cultured in vitro to logarithmic phase, collected, and resuspended in a PBS buffer solution. The collected cells were injected into the spleen of mice through surgery with 5×10^5 MC38 cells per mouse to establish a tumor metastasis model. […] The day of the first injection was taken as Day 1. Then, the mice were detected for weight and recorded, and subject to Luciferin fluorescence imaging. That is, each mouse was intraperitoneally injected with 100 μL of 1 mg/mL aqueous solution of potassium D-Luciferin as formulated. 10 min after injection, the mice were subject to Luciferin fluorescence imaging using a Small Animal […] Imaging System (model: IVIS Lumina XRMS Series III).
# [3] = test system: MC38 cells; assay: subcutaneous tumor model, colon cancer cells such as MC38; format: in vivo, C57 mice; settings: e.g. 4 mg/kg + 2 mg/kg i.p. every 3 days, 6 doses
# Protocol: (1) Tumorigenesis in mice. 6-8 week-old C57 female mice were selected. Colon cancer cells, such as MC38 cells, were cultured in vitro to logarithmic phase, collected, and resuspended in a PBS buffer solution. The collected cells were subcutaneously injected into the leg of mice with 5×10^5 cells per mice to establish a subcutaneous tumor model.
# (2) After tumorigenesis, the mice were divided into four experimental groups including a blank control, a PDE4 inhibitor group, an immune checkpoint inhibitor group, and a PDE4 inhibitor+immune checkpoint inhibitor group. The mice in the PDE4 inhibitor+immune checkpoint inhibitor group were sequentially intraperitoneally injected with, e.g., 4 mg/kg of PDE4 inhibitor and, e.g., 2 mg/kg of immune checkpoint inhibitor (e.g., a PD-L1 antibody) every 3 days, with 6 doses in total, while the PDE4 inhibitor group and the immune checkpoint inhibitor group were separately injected with the same dose of PDE4 inhibitor and the immune checkpoint inhibitor in the same manner, and the blank control was injected with the same dose of normal saline. The day of the first injection was taken as day 1. The mice were detected for the weight and tumor size and recorded: the tumor volume (mm^3)=length (L)×width (W)^2/2, and then subject to Luciferin fluorescence imaging of tumor. That is, each mouse was intraperitoneally injected with 100 μL of 1 mg/mL aqueous solution of D-Luciferin potassium as formulated. 10 min after injection, the mice were subject to Luciferin fluorescence imaging using a Small Animal Liver Imaging System (model: IVIS Lumina XRMS Series III).
# (1) Tumorigenesis in mice. 6-8 week-old C57 female mice were selected. […]
# [4] = test system: Breast cancer cells; assay: subcutaneous tumor model, breast cancer cells; format: in vivo, C57 mice; settings: e.g. 4 mg/kg + 2 mg/kg i.p. every 3 days, 6 doses
# Protocol: (§1) (1) Tumorigenesis in mice. 6-8 week-old C57 female mice were selected. Breast cancer cells were cultured in vitro to logarithmic phase, collected, and resuspended in a PBS buffer solution. The collected cells were subcutaneously injected into the leg of mice with 5×10^5 cells per mouse to establish a subcutaneous tumor model. (2) After tumorigenesis, the mice were divided into four experimental groups including a blank control, a PDE4 inhibitor group, an immune checkpoint inhibitor group, and a PDE4 inhibitor+immune checkpoint inhibitor group. […] The mice were detected for weight and tumor size and recorded: tumor volume (mm^3)=length (L)×width (W)^2/2, and then subject to Luciferin fluorescence imaging of tumor. […] 10 min after injection, the mice were subject to Luciferin fluorescence imaging using a Small Animal Live Imaging System (model: IVIS Lumina XRMS Series III). […] The mice were detected for weight and tumor size and recorded: tumor volume (mm^3)=length (L)×width (W)^2/2, and then subject to Luciferin fluorescence imaging of tumor. […] 10 min after injection, the mice were subject to Luciferin fluorescence imaging using a Small Animal Live Imaging System (model: IVIS Lumina XRMS Series III).
# [5] = test system: Melanoma cells; assay: subcutaneous tumor model, melanoma cells; format: in vivo, C57 mice; settings: e.g. 4 mg/kg + 2 mg/kg i.p. every 3 days, 6 doses
# Protocol: as §1, with “Melanoma” for “Breast cancer”
# [6] = test system: Lymphoma cells; assay: subcutaneous tumor model, lymphoma cells; format: in vivo, C57 mice; settings: in combination with anti-PD-L1 antibody; e.g. 4 mg/kg + 2 mg/kg i.p. every 3 days, 6 doses
# Protocol: (§2) (1) Tumorigenesis in mice. 6-8 week-old C57 female mice were selected. Lymphoma cells were cultured in vitro to logarithmic phase, collected, and resuspended in a PBS buffer solution. The collected cells were subcutaneously injected into the leg of mice with 5×10^5 cells per mouse to establish a subcutaneous tumor model. (2) After tumorigenesis, the mice were divided into four experimental groups including a blank control, a PDE4 inhibitor group, an immune checkpoint inhibitor group, and a PDE4 inhibitor+immune checkpoint inhibitor group. The mice in the PDE4 inhibitor+immune checkpoint inhibitor group were sequentially intraperitoneally injected with e.g. 4 mg/kg of PDE4 inhibitor and e.g. 2 mg/kg of immune checkpoint inhibitor (e.g., an PD-L1 antibody) every 3 days, with 6 doses in total, while the PDE4 inhibitor group and the immune checkpoint inhibitor group were separately injected with the same dose of PDE4 inhibitor and immune checkpoint inhibitor in the same manner, and the blank control was injected with the same dose of normal saline. […] The mice were detected for weight and tumor size and recorded: tumor volume (mm^3)=length (L)×width (W)^2/2, and then subject to Luciferin fluorescence imaging of tumor. […] 10 min after injection, the mice were subject to Luciferin fluorescence imaging using a Small Animal Live Imaging System (model: IVIS Lumina XRMS Series III).
# [7] = test system: Hematologic tumor cells; assay: subcutaneous tumor model, hematologic tumor cells; format: in vivo, C57 mice; settings: in combination with anti-PD-L1 antibody; e.g. 4 mg/kg + 2 mg/kg i.p. every 3 days, 6 doses
# Protocol: as §2, with “Hematologic tumor” for “Lymphoma”
# [8] = test system: breast tumor cells 4T1; assay: mouse model of lung metastasis of breast cancer; format: in vivo; settings: 4T1 lung metastasis model; FIG. 8
# [9] = in combination with anti-PD-1 antibody
# [10] = in combination with anti-PD-L1 antibody
compound,measurement,setting,value
"O=C(O)Cc1ccc(Cc2cc(-c3cccc(Cl)c3)nc(C(F)(F)F)c2)cc1 [BPN14770, Benzeneacetic acid, 4-[[2-(3-chlorophenyl)-6-(trifluoromethyl)-4-pyridinyl]methyl]-]",inhibitory effect on metastasis in the scratch test,[1],inhibiting metastasis
"COc1ccc(C2CNC(=O)C2)cc1OC1CCCC1 (stereo not shown) [Rolipram, 4-(3-cyclopentyloxy-4-methoxyphenyl)pyrrolidin-2-one]",inhibitory effect on metastasis in the scratch test,[1],inhibiting metastasis
COc1cccc(Nc2c(C(N)=O)cnc3c(C)cc(S(=O)(=O)c4cccc(C(=O)N(C)C)c4)cc23)c1 [GSK256066],inhibitory effect on metastasis in the scratch test,[1],inhibiting the results of metastasis
OCCN(CCO)c1nc(N2CCCCC2)c2nc(N(CCO)CCO)nc(N3CCCCC3)c2n1 [Dipyridamole],inhibitory effect on metastasis in the scratch test,[1],inhibiting metastasis
O=C(Nc1c(Cl)cncc1Cl)c1ccc(OC(F)F)c(OCC2CC2)c1 [Roflumilast],inhibition of tumor metastasis (Luciferin fluorescence imaging),[2],Capable of Inhibiting Tumor Metastasis
same,inhibition of tumor growth,[3]; in combination with anti-CTLA-4 antibody,Synergistically Inhibiting Growth of Colon Cancer
same,inhibition of tumor growth,[3]; in combination with anti-LAG-3 antibody,Synergistically Inhibiting Growth of Colon Cancer
same,inhibition of tumor growth,[3]; [9],Synergistically Inhibiting Growth of Colon Cancer
same,inhibition of tumor growth,[4]; [9],Synergistically Inhibiting Growth of Breast Cancer
same,inhibition of tumor growth,[4]; [10],Synergistically Inhibiting Growth of Breast Cancer
same,inhibition of tumor growth,[5]; [9],Synergistically Inhibiting Growth of Melanoma
same,inhibition of tumor growth,[5]; [10],Synergistically Inhibiting Growth Of Melanoma
same,inhibition of tumor growth,[6],Synergistically Inhibiting Growth of Lymphoma
same,inhibition of tumor growth,[7],Synergistically Inhibiting Growth of Hematologic Tumor
same,inhibitory effect on metastasis in the scratch test,[1],inhibiting metastasis
same,inhibitory effect on tumor metastasis,[8],significant inhibitory effect on tumor metastasis
